Experimental data reported in PubChem BioAssay (NCI).
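Following 48 hours of exposure in 96-well plates, responses at five concentrations were used to interpolate endpoints linearly. GI50 marks 50% less growth. TGI is the concentration that stops growth completely.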

Key:
Experiment in all cases: DTP human tumour cell line panel, 48 h
UACC-257 melanoma = test system: UACC-257 melanoma
HCC-2998 colon = test system: HCC-2998 colon
HCT-15 colon = test system: HCT-15 colon
T-47D breast = test system: T-47D breast
OVCAR-3 ovarian = test system: OVCAR-3 ovarian
A498 renal = test system: A498 renal
CCRF-CEM leukemia = test system: CCRF-CEM leukemia
OVCAR-5 ovarian = test system: OVCAR-5 ovarian
CAKI-1 renal = test system: CAKI-1 renal
SNB-19 CNS = test system: SNB-19 CNS
A549 NSCLC = test system: A549 NSCLC
HT29 colon = test system: HT29 colon
BT-549 breast = test system: BT-549 breast
MCF7 breast = test system: MCF7 breast
SW-620 colon = test system: SW-620 colon
LOX IMVI melanoma = test system: LOX IMVI melanoma
PC-3 prostate = test system: PC-3 prostate
HL-60(TB) leukemia = test system: HL-60(TB) leukemia
KM12 colon = test system: KM12 colon
SF-295 CNS = test system: SF-295 CNS
RPMI-8226 leukemia = test system: RPMI-8226 leukemia
M14 melanoma = test system: M14 melanoma
UACC-62 melanoma = test system: UACC-62 melanoma
OVCAR-8 ovarian = test system: OVCAR-8 ovarian
NCI-H23 lung = test system: NCI-H23 lung
ACHN renal = test system: ACHN renal
SF-539 CNS = test system: SF-539 CNS
U251 CNS = test system: U251 CNS
MDA-MB-435 = test system: MDA-MB-435
COLO 205 colon = test system: COLO 205 colon
786-0 renal = test system: 786-0 renal
MDA-MB-231 breast = test system: MDA-MB-231 breast
K-562 leukemia = test system: K-562 leukemia
SN12C renal = test system: SN12C renal
SK-MEL-2 melanoma = test system: SK-MEL-2 melanoma
HOP-92 NSCLC = test system: HOP-92 NSCLC
RXF 393 renal = test system: RXF 393 renal
SK-MEL-28 melanoma = test system: SK-MEL-28 melanoma
HS 578T breast = test system: HS 578T breast
MALME-3M melanoma = test system: MALME-3M melanoma
DU-145 prostate = test system: DU-145 prostate
TK-10 renal = test system: TK-10 renal
EKVX NSCLC = test system: EKVX NSCLC
NCI/ADR-RES ovarian = test system: NCI/ADR-RES ovarian
MOLT-4 leukemia = test system: MOLT-4 leukemia
NCI-H460 lung = test system: NCI-H460 lung
SF-268 CNS = test system: SF-268 CNS
OVCAR-4 ovarian = test system: OVCAR-4 ovarian
HOP-62 NSCLC = test system: HOP-62 NSCLC
SR leukemia = test system: SR leukemia
HCT-116 colon = test system: HCT-116 colon
SK-MEL-5 melanoma = test system: SK-MEL-5 melanoma
NCI-H226 lung = test system: NCI-H226 lung
SNB-75 CNS = test system: SNB-75 CNS
SK-OV-3 ovarian = test system: SK-OV-3 ovarian

SMILES: CCC(=O)c1c(C(F)(F)F)n([O-])c2cc(N3CCNCC3)c(F)cc2[n+]1=O
- GI50 (UACC-257 melanoma): 3.22 µM
- TGI (UACC-257 melanoma): 13 µM
- GI50 (HCC-2998 colon): 1400 nM
- TGI (HCC-2998 colon): 14.3 µM
- GI50 (HCT-15 colon): 1760 nM
- TGI (HCT-15 colon): 13.5 µM
- GI50 (T-47D breast): 2810 nM
- TGI (T-47D breast): 19.1 µM
- GI50 (OVCAR-3 ovarian): 1660 nM
- TGI (OVCAR-3 ovarian): 8.67 µM
- GI50 (A498 renal): 1670 nM
- TGI (A498 renal): 11.1 µM
- GI50 (CCRF-CEM leukemia): 2050 nM
- TGI (CCRF-CEM leukemia): 22.9 µM
- GI50 (OVCAR-5 ovarian): 7.78 µM
- TGI (OVCAR-5 ovarian): 27.3 µM
- GI50 (CAKI-1 renal): 3.27 µM
- TGI (CAKI-1 renal): 17.9 µM
- GI50 (SNB-19 CNS): 7.31 µM
- TGI (SNB-19 CNS): 20.6 µM
- GI50 (A549 NSCLC): 2580 nM
- TGI (A549 NSCLC): 13.8 µM
- GI50 (HT29 colon): 2100 nM
- TGI (HT29 colon): 18.5 µM
- GI50 (BT-549 breast): 2840 nM
- TGI (BT-549 breast): 12.5 µM
- GI50 (MCF7 breast): 3.48 µM
- TGI (MCF7 breast): 19.8 µM
- GI50 (SW-620 colon): 2680 nM
- TGI (SW-620 colon): 17.9 µM
- GI50 (LOX IMVI melanoma): 3.41 µM
- TGI (LOX IMVI melanoma): 19.4 µM
- GI50 (PC-3 prostate): 2330 nM
- TGI (PC-3 prostate): 15.8 µM
- GI50 (HL-60(TB) leukemia): 1180 nM
- TGI (HL-60(TB) leukemia): 6.68 µM
- GI50 (KM12 colon): 1410 nM
- TGI (KM12 colon): 15.4 µM
- GI50 (SF-295 CNS): 4.2 µM
- TGI (SF-295 CNS): 18.5 µM
- GI50 (RPMI-8226 leukemia): 2170 nM
- TGI (RPMI-8226 leukemia): 12.2 µM
- GI50 (M14 melanoma): 3.28 µM
- TGI (M14 melanoma): 14.2 µM
- GI50 (UACC-62 melanoma): 2270 nM
- TGI (UACC-62 melanoma): 11.9 µM
- GI50 (OVCAR-8 ovarian): 2380 nM
- TGI (OVCAR-8 ovarian): 11.7 µM
- GI50 (NCI-H23 lung): 3.42 µM
- TGI (NCI-H23 lung): 16.2 µM
- GI50 (ACHN renal): 1550 nM
- TGI (ACHN renal): 13.7 µM
- GI50 (SF-539 CNS): 10.3 µM
- TGI (SF-539 CNS): 22.4 µM
- GI50 (U251 CNS): 5.04 µM
- TGI (U251 CNS): 19.9 µM
- GI50 (MDA-MB-435): 4.95 µM
- TGI (MDA-MB-435): 17.3 µM
- GI50 (COLO 205 colon): 454 nM
- TGI (COLO 205 colon): 10.8 µM
- GI50 (786-0 renal): 3.86 µM
- TGI (786-0 renal): 17.6 µM
- GI50 (MDA-MB-231 breast): 4.17 µM
- TGI (MDA-MB-231 breast): 17.1 µM
- GI50 (K-562 leukemia): 1650 nM
- TGI (K-562 leukemia): 12.8 µM
- GI50 (SN12C renal): 2730 nM
- TGI (SN12C renal): 14.6 µM
- GI50 (SK-MEL-2 melanoma): 2700 nM
- TGI (SK-MEL-2 melanoma): 11.7 µM
- GI50 (HOP-92 NSCLC): 2690 nM
- TGI (HOP-92 NSCLC): 17.5 µM
- GI50 (RXF 393 renal): 1620 nM
- TGI (RXF 393 renal): 15.1 µM
- GI50 (SK-MEL-28 melanoma): 7.93 µM
- TGI (SK-MEL-28 melanoma): 21.9 µM
- GI50 (HS 578T breast): 2740 nM
- TGI (HS 578T breast): 21.3 µM
- GI50 (MALME-3M melanoma): 324 nM
- TGI (MALME-3M melanoma): 8.16 µM
- GI50 (DU-145 prostate): 1610 nM
- TGI (DU-145 prostate): 4.36 µM
- GI50 (TK-10 renal): 2930 nM
- TGI (TK-10 renal): 17 µM
- GI50 (EKVX NSCLC): 2820 nM
- TGI (EKVX NSCLC): 13.7 µM
- GI50 (NCI/ADR-RES ovarian): 3.95 µM
- TGI (NCI/ADR-RES ovarian): 24.3 µM
- GI50 (MOLT-4 leukemia): 2030 nM
- TGI (MOLT-4 leukemia): 34.5 µM
- GI50 (NCI-H460 lung): 1480 nM
- TGI (NCI-H460 lung): 11.5 µM
- GI50 (SF-268 CNS): 4.76 µM
- TGI (SF-268 CNS): 21.1 µM
- GI50 (OVCAR-4 ovarian): 1890 nM
- TGI (OVCAR-4 ovarian): 25 µM
- GI50 (HOP-62 NSCLC): 10.2 µM
- TGI (HOP-62 NSCLC): 22.6 µM
- GI50 (SR leukemia): 1530 nM
- TGI (SR leukemia): 21.9 µM
- GI50 (HCT-116 colon): 1710 nM
- TGI (HCT-116 colon): 13.1 µM
- GI50 (SK-MEL-5 melanoma): 1260 nM
- TGI (SK-MEL-5 melanoma): 3.55 µM
- GI50 (NCI-H226 lung): 5.37 µM
- TGI (NCI-H226 lung): 25.2 µM
- GI50 (SNB-75 CNS): 1770 nM
- TGI (SNB-75 CNS): 12.5 µM
- GI50 (SK-OV-3 ovarian): 1970 nM
- TGI (SK-OV-3 ovarian): 10.4 µM
